Experiment [1] concerns B:9-23 specific CD4 T cells. The note with it: presented by IAg7; cited from earlier work.
Experiment [2] has as its system CD4+CFSElo cells. Description: T cell receptor V alpha gene sequencing of CD4+CFSElo cells after proliferation to peptide. Format: cell-based, human. The note with it: three HLA matched T1D subjects with two non-β57Asp DQ alleles; CD4+CFSElo cells vs baseline. The protocol:
Three individuals had TCR α-chain sequencing performed on sorted CD4 T cells before peptide proliferation and then on CD4+CFSElo cells after one week of proliferation. Total RNA was directly extracted from sorted cells using the RNeasy Mini kit (Qiagen) for cells before proliferation and the PicoPure RNA isolation kit (Life Technologies) for those after proliferation. […] To amplify TCR-α and TCR-β chains, a two-step PCR was performed. PCR reactions were generated for α- and β-chains separately using the Universal Primer A Mix supplied from the SMARTer RACE cDNA Amplification Kit along with a primer designed on the constant region of α-[…] NO:22)) and β-chains […] NO:23)), respectively. The first PCR products were further amplified with nested primers ligated with the 454 adaptor sequences containing a multiple identifier sequence: forward primer for both α- and β-chains ([NT] NO:24)), reverse primer for α-chains […] NO:25)-multiple identifier sequence-[…] NO:26), and reverse primer for β-chains […] […] All sequences obtained from 454 sequencing were analyzed by the […]-QUEST algorithm (45) to identify Vgene, Jgene, and junction sequences, followed by additional analysis by in-house software to determine frequencies of Vgene usages by individual TCR sequences. Vgene frequencies determined by mean values from the 12 PCR reactions were analyzed for individual samples. […]

Results on one sequence are retold here after patent US10363288B2, “Insulin mimotopes and methods of using the same” (THE REGENTS OF THE UNIVERSITY OF COLORADO, a body corporate, priority 2015, dated 2019).

Take “SHLVEALYLVCGEEG [B: 9-23 B22E, B:9-23 mimotope; B22 arginine to glutamic acid]”: the “stimulates B:9-23 specific CD4 T cells better than the wild type peptide” value in experiment [1] is “about 100 fold”. In addition, the “TCR V gene usage of alpha chains before and after proliferation” value in experiment [2] is “skewing with several V alpha genes and one V delta gene”.
